# According to patent US4379788A, “2-Phenyl-pyrimidones” (Dr. Karl Thomae Gesellschaft mit beschrankter Haftung, priority 1980, dated 1983):
# Columns and labels:
# Format in all cases: in vivo
# mice = assay: Determination of acute toxicity in mice after intravenous administration; conditions: 35 mg/kg i.v., observation period 14 days
# Procedure: (§1) The acute toxicity of the test compound was determined in mice (observationperiod: 14 days) after intravenous administration.
# [1] = as above; conditions: mouse, in vivo, iv, observation period 14 days
# Procedure: as §1
# blood circulation = assay: Effect on blood circulation in anesthetized dogs (i.v.); parameters: Duration: unit not given here; conditions: for Effect on average arterial blood pressure (first figure of the pair): figure before the slash; for Decrease in contractility dp/dt max: left ventricle
# Procedure: The blood circulation tests were carried out on dogs with a body weight of 18-29 kg under chloraloseurethane-nembutal anesthesia (54+270+10 mg/kg i.v.). After opening the thorax in the 4th left intercostal space the animals were ventilated with room air by means of a Harvard respirator. The arterial blood pressure was measured in the arteria carotis by a Statham pressure transducer; the heart rate was measured electronically from the sequence of the R-peaks of the electrocardiogram. The maximum rate of pressure increase ([…]) in the left ventricula was measured by means of a Konigsberg pressure received and a Grass differential amplifier. All parameters were recorded by means of a direct-writer. For anticoagulation the animals were injected i.v. with a solution of 10 mg/kg of sodium polyethylenesulfonate in 20% polydiol. The test compounds were administered intravenously to groups of 3 to 4 dogs.
structure (smiles),measurement,setting,value
"COc1ccc2nc(-c3ccc(OCC(O)CN(C)CCc4ccc(OC)c(OC)c4)cc3)n(C)c(=O)c2c1.Cl.Cl (centres unmarked) [B, 2-{4-[2-Hydroxy-3-(2-(3,4-dimethoxy-phenyl)-N-methylethylamino)-propoxy]-phenyl}-3-methyl-6-methoxy-3,4-dihydro-quinazolin-4-one dihydrochloride]",Acute toxicity: animals died,mice,0 out of 5
same,LD50 at 336 h,[1],> 35 mg/kg
same,Decrease in heart rate,blood circulation; 1.0 mg/kg i.v.,-28 min⁻¹
same,Duration,blood circulation; 1.0 mg/kg i.v.,45
same,Effect on average arterial blood pressure (first figure of the pair),blood circulation; 1.0 mg/kg i.v.,-16 mm Hg
same,Decrease in contractility dp/dt max,blood circulation; 1.0 mg/kg i.v.,-17
"COc1ccc2nc(-c3ccc(OCC(O)CNCCc4ccccc4OC)cc3)n(C)c(=O)c2c1.Cl.Cl (centres unmarked) [C, 2-{4-[2-Hydroxy-3-(2-(2-methoxy-phenyl)-ethylamino)-propoxy]-phenyl}-3-methyl-6-methoxy-3,4-dihydroquinazolin-4-one dihydrochloride]",Acute toxicity: animals died,mice,0 out of 5
same,LD50 at 336 h,[1],> 35 mg/kg
same,Decrease in heart rate,blood circulation; 1.0 mg/kg i.v.,-22 min⁻¹
same,Duration,blood circulation; 1.0 mg/kg i.v.,> 36
same,Effect on average arterial blood pressure (first figure of the pair),blood circulation; 1.0 mg/kg i.v.,+1 mm Hg
same,Decrease in contractility dp/dt max,blood circulation; 1.0 mg/kg i.v.,-14
"COc1ccc2nc(-c3ccc(OCC(O)CNC(C)(C)C)cc3)n(C)c(=O)c2c1 (centres unmarked) [Compound A, 2-[4-(2-Hydroxy-3-tert.butylamino-propoxy)-phenyl]-3-methyl-6-methoxy-3,4-dihydro-quinazolin-4-one]",Acute toxicity: animals died,mice,0 out of 5
same,LD50 at 336 h,[1],> 35 mg/kg
same,Decrease in heart rate,blood circulation; 0.5 mg/kg i.v.,-21 min⁻¹
same,Duration,blood circulation; 0.5 mg/kg i.v.,> 55
same,Effect on average arterial blood pressure (second figure of the pair),"blood circulation; 0.5 mg/kg i.v., figure after the slash",-8 mm Hg
same,Effect on average arterial blood pressure (first figure of the pair),blood circulation; 0.5 mg/kg i.v.,-20 mm Hg
same,Decrease in contractility dp/dt max,blood circulation; 0.5 mg/kg i.v.,-33
"COc1ccc2nc(-c3ccc(OCC(O)CNC(C)C)cc3)n(C)c(=O)c2c1 (centres unmarked) [D, 2-[4-(2-Hydroxy-3-isopropylamino-propoxy)-phenyl]-3-methyl-6-methoxy-3,4-dihydro-quinazolin-4-one]",Decrease in heart rate,blood circulation; 1.0 mg/kg i.v.,-30 min⁻¹
same,Duration,blood circulation; 1.0 mg/kg i.v.,> 40
same,Effect on average arterial blood pressure (first figure of the pair),blood circulation; 1.0 mg/kg i.v.,-5 mm Hg
same,Decrease in contractility dp/dt max,blood circulation; 1.0 mg/kg i.v.,-27
"COc1cc2nc(-c3ccc(OCC(O)CNCCOc4ccccc4C)cc3)n(C)c(=O)c2cc1OC (centres unmarked) [E, 2-{4-[2-Hydroxy-3-(2-(2-methyl-phenoxy)-ethylamino)-propoxy]-phenyl}-3-methyl-6,7-dimethoxy-3,4-dihydroquinazolin-4-one]",Acute toxicity: animals died,mice,0 out of 5
same,LD50 at 336 h,[1],> 35 mg/kg
same,Decrease in heart rate,blood circulation; 1.0 mg/kg i.v.,-11 min⁻¹
same,Duration,blood circulation; 1.0 mg/kg i.v.,> 36
same,Effect on average arterial blood pressure (first figure of the pair),blood circulation; 1.0 mg/kg i.v.,-13 mm Hg
same,Decrease in contractility dp/dt max,blood circulation; 1.0 mg/kg i.v.,-14
"COc1cccc2c(=O)n(C)c(-c3ccc(OCCCNCC(O)COc4cccc(C)c4)cc3)nc12 (centres unmarked) [F, 2-{4-[3-(2-Hydroxy-3-(3-methyl-phenoxy)-propylamino)-propoxy]-phenyl}-3-methyl-8-methoxy-3,4-dihydroquinazolin-4-one]",Acute toxicity: animals died,mice,0 out of 5
same,LD50 at 336 h,[1],> 35 mg/kg
same,Decrease in heart rate,blood circulation; 1.0 mg/kg i.v.,-23 min⁻¹
same,Duration,blood circulation; 1.0 mg/kg i.v.,> 63
same,Effect on average arterial blood pressure (first figure of the pair),blood circulation; 1.0 mg/kg i.v.,-11 mm Hg
same,Decrease in contractility dp/dt max,blood circulation; 1.0 mg/kg i.v.,-23
